Measured values taken from patent publication US6924302B2, “Substituted triazole diamine derivatives as kinase inhibitors” (Ortho McNeil Pharmaceutical, Inc., priority 2000, dated 2005).
Read-outs that look alike come from different tables or passages of the source.

What was measured:
[1] = tested on: SK-OV-3 ovarian adenocarcinoma; assay: Inhibition of Cell Proliferation (14C-thymidine incorporation), SK-OV-3; type: cell-based; conditions: Homo sapiens, SK-OV-3 cell line
Experimental: The ability of a test compound to inhibit the proliferation of cell growth was determined by measuring incorporation of ^14C-labelled thymidine into newly synthesized DNA within the cells. […] Cells were trypsinized and counted and 3000-8000 cells were added to each well of a 96-well CytoStar tissue culture treated scintillating microplate (Amersham #RPNQ0160) in complete medium in a volume of 100 μl. Cells were incubated for 24 hours in complete medium at 37° C. in an atmosphere containing 5% CO2. Next, 1 μl of test compound in 100% DMSO was added to the wells of the plate. DMSO only was added to control wells. Cells were incubated for 24 more hours in complete medium at 37° C. in an atmosphere containing 5% CO2. […] The plate was incubated for 24 hours at 37° C. plus 5% CO2 in drug plus ^14C-thymidine. The contents of the plate were discarded into a ^14C radioactive waste container by inverting the plate and the plate was washed twice with 200 μl PBS. 200 μl of PBS is added to each well. […] The degree of methyl ^14C-thymidine incorporation was quantified on a Packard Top Count.

[2] = tested on: PC-3 prostate adenocarcinoma; assay: Inhibition of Cell Proliferation (14C-thymidine incorporation), PC-3; type: cell-based; conditions: Homo sapiens, PC-3 cell line
Experimental: The ability of a test compound to inhibit the proliferation of cell growth was determined by measuring incorporation of ^14C-labelled thymidine into newly synthesized DNA within the cells. This method was used on cell lines derived from carcinomas originating from several tissues such as HeLa cervical adenocarcinoma (American Type Culture Collection (ATCC), Virginia, Cat. #CCL-2), A375 malignant melanoma (ATCC CRL-1619), SK-OV-3 ovarian adenocarcinoma (ATCC HTB-77) HCT-116 colon carcinoma (CCL-247), PC-3 prostate adenocarcinoma (ATCC CRL-1435), and MDA-MB-231 (Xenogen Corp.) In this way the effect of a compound on cell growth of cells with many different phenotypes can be determined. Cells were trypsinized and counted and 3000-8000 cells were added to each well of a 96-well CytoStar tissue culture treated scintillating microplate (Amersham #RPNQ0160) in complete medium in a volume of 100 μl. Cells were incubated for 24 hours in complete medium at 37° C. in an atmosphere containing 5% CO2. Next, 1 μl of test compound in 100% DMSO was added to the wells of the plate. DMSO only was added to control wells. Cells were incubated for 24 more hours in complete medium at 37° C. in an atmosphere containing 5% CO2. Methyl ^14C-thymidine 56 mCi/mmol (NEN #NEC568 or Amersham #CFA532) was diluted in complete medium and 0.2 uCi/well was added to each well of the CytoStar plate in a volume of 20 μl. The plate was incubated for 24 hours at 37° C. plus 5% CO2 in drug plus ^14C-thymidine. The contents of the plate were discarded into a ^14C radioactive waste container by inverting the plate and the plate was washed twice with 200 μl PBS. 200 μl of PBS is added to each well. The top of the plate was sealed with a transparent plate sealer and a white plate backing sealer (Packard #6005199) was applied to the bottom of the plate. The degree of methyl ^14C-thymidine incorporation was quantified on a Packard Top Count.

[3] = target: T1, HER2 (human epidermal growth factor receptor-2) (Homo sapiens, UniProt P04626); assay: Kinase Selectivity Assay HER2; type: biochemical
T1 construct: begins at amino acid 676 followed by the remainder of the HER2 cytoplasmic domain; polyhistidine (N)
T1 sequence (P04626 676-1255 limits assumed): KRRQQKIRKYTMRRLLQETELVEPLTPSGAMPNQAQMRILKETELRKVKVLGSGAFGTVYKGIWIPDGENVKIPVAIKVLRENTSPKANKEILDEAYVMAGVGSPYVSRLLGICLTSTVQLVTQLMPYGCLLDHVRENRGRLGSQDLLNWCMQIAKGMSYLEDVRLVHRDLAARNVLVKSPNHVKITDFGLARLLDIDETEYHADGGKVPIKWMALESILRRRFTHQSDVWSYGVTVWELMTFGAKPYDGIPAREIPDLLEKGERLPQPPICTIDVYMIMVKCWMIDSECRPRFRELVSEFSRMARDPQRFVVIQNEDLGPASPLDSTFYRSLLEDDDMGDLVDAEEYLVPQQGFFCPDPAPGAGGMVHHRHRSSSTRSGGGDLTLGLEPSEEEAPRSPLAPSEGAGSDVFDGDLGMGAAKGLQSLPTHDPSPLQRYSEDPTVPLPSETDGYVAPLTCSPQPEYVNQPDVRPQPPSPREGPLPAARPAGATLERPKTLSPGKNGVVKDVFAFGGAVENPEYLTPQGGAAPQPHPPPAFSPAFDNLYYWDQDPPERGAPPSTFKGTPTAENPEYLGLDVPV
Outline: (§1)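 Reactions ran one hour at 30° C in 1% DMSO with enzyme diluted in 50 mM Tris-HCl pH 8.0, 0.1% BSA. Scintillation counting read ^33P incorporated into immobilized biotinylated peptide.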

FGF-R2 = FGF-R2 (Homo sapiens, UniProt P21802); assay: Kinase Selectivity Assay FGF-R2; type: biochemical; conditions: Tables 2a-2k
Chain of FGF-R2 (P21802 22-821, species assumed): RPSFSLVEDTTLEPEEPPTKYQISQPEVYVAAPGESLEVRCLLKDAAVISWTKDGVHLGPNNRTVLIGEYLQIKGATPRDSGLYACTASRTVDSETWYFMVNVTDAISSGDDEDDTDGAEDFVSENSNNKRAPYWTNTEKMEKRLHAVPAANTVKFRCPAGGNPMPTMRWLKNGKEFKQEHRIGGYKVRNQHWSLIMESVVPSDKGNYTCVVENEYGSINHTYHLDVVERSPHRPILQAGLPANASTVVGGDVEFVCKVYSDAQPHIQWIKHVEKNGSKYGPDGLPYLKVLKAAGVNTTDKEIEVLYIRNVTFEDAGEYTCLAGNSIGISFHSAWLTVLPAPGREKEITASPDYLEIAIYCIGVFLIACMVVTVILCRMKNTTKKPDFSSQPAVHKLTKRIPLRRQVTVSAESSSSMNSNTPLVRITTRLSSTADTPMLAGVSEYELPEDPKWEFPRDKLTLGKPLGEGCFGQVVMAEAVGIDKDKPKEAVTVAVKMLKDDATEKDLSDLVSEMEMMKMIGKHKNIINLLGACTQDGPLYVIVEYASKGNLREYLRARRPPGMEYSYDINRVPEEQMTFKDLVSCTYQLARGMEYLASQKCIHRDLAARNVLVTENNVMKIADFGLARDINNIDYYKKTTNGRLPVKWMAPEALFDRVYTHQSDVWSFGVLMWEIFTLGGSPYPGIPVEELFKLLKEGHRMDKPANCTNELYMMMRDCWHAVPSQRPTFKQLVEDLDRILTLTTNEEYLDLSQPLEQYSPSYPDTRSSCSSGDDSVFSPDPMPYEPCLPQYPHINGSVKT
Experimental: Assays to test compound inhibition of other kinases were preformed using methods that measure the amount of phosphorylation of a biotinylated peptide substrate. Biotinylated peptide substrates were selected from the literature as appropriate for the enzyme being evaluated. […] Assay conditions vary slightly for each protein kinase, for example, insulin receptor kinase requires 10 mM MnCl2 for activity and Calmodulin-dependent protein kinase requires calmodulin and 10 mM CaCl2. These assay conditions are known in the art. The reaction mixture was dispensed into the wells of a streptavidin coated Flashplate and 1 μl drug stock in 100% DMSO was added to a 100 μl reaction volume resulting in a final concentration of 1% DMSO on the reaction. Enzyme was diluted in 50 mM Tris-HCl pH=8.0, 0.1% BSA and add to each well. The reaction was incubated for one hour at 30° C. in the presence of compound. After one hour the reaction mix was aspirated from the plate and the plate was washed with PBS containing 100 mM EDTA. The plate was read on a scintillation counter to determine ^33P-γ-ATP incorporated into the immobilized peptide. Test compounds were assayed in duplicate at 8 concentrations [100 uM, 10 uM, 1 uM, 100 nM, 10 nM, 1 nM, 100 pM, 10 pM]. A maximum and minimum signal for the assay was determined on each plate. The IC50 was calculated from the dose response curve of the percent inhibition of the maximum signal in the assay according to the formula [max signal—background/test compound signal—background (100)=% inhibition] by graphing the percent inhibition against the log concentration of test compound. Known inhibitor compounds appropriate for the kinase being assayed were also included on each plate.

[4] = target: T2, CDK2 in complex with cyclin A (Homo sapiens, UniProt P24941); assay: Kinase Selectivity Assay CDK2; type: biochemical; conditions: Table 1
T2 construct: purchased Upstate Biotech
Outline: as §1

[5] = Kinase Selectivity, Tables 2a-2k, read-out: HER2 Kinase IC50

SMILES	IC50 [1]	IC50 [2]	IC50 [3, 5]	IC50 ([3]; Table 1, read-out: HER2 IC50)	IC50 (FGF-R2)	IC50 [4]
Nc1nc(Nc2ccc(S(N)(=O)=O)cc2)nn1C(=O)c1sccc1F [Cpd 16, 4-[[5-amino-1-[(3-fluoro-2-thienyl)carbonyl]-1H-1,2,4-triazol-3-yl]amino]-benzenesulfonamide]	2110 nM	368 nM	–	–	–	–
Nc1nc(Nc2ccc(S(N)(=O)=O)cc2)nn1C(=O)c1sccc1Cl [Cpd 17, 4-[[5-amino-1-[(3-chloro-2-thienyl)carbonyl]-1H-1,2,4-triazol-3-yl]amino]-benzenesulfonamide]	3900 nM	294 nM	–	–	–	–
Nc1nc(Nc2ccc(S(N)(=O)=O)cc2)nn1C(=O)c1ccsc1 [Cpd 30, 4-[[5-amino-1-(3-thienylcarbonyl)-1H-1,2,4-triazol-3-yl]amino]-benzenesulfonamide]	5750 nM	951 nM	–	–	–	–
CC(C)(C)c1ccc(C(=O)n2nc(Nc3ccc(S(N)(=O)=O)cc3)nc2N)s1 [Cpd 51, 4-[[5-amino-1-[[5-(1,1-dimethylethyl)-2-thienyl]carbonyl]-1H-1,2,4-triazol-3-yl]amino]-benzenesulfonamide]	–	57 nM	31 nM	31 nM	–	–
Cc1ccccc1C(=O)n1nc(Nc2ccc(S(N)(=O)=O)cc2)nc1N [Cpd 57, 4-[[5-amino-1-(2-methylbenzoyl)-1H-1,2,4-triazol-3-yl]amino]-benzenesulfonamide]	–	–	1320 nM	1320 nM	–	–
CC(O)c1ccc(F)c(C(=O)n2nc(Nc3ccc(S(N)(=O)=O)cc3)nc2N)c1F (stereo not shown) [Cpd 58, 4-[[5-amino-1-[2,6-difluoro-3-(1-hydroxyethyl)benzoyl]-1H-1,2,4-triazol-3-yl]amino]-benzenesulfonamide]	–	362 nM	654 nM	650 nM	96 nM	–
Cc1ccc(F)c(C(=O)n2nc(Nc3ccc(S(N)(=O)=O)cc3)nc2N)c1Cl [Cpd 69, 4-[[5-amino-1-(2-chloro-6-fluoro-3-methylbenzoyl)-1H-1,2,4-triazol-3-yl]amino]-benzenesulfonamide]	–	8 nM	–	–	365 nM	–
Nc1nc(Nc2ccc(S(N)(=O)=O)cc2)nn1C(=O)c1c(F)cccc1Cl [Cpd 70, 4-[[5-amino-1-(2-chloro-6-fluorobenzoyl)-1H-1,2,4-triazol-3-yl]amino]-benzenesulfonamide]	–	11 nM	1230 nM	1230 nM	273 nM	–
CN1CCN(c2ccc(Nc3nc(N)n(C(=O)c4c(F)cccc4F)n3)cc2)CC1 [Cpd 71, 1-(2,6-difluorobenzoyl)-N^3-[4-(4-methyl-1-piperazinyl)phenyl]-1H-1,2,4-triazole-3,5-diamine]	–	25 nM	1300 nM	1300 nM	441 nM	–
CNS(=O)(=O)c1ccc(Nc2nc(N)n(C(=O)c3c(F)cccc3F)n2)cc1 [Cpd 80, 4-[[5-amino-1-(2,6-difluorobenzoyl)-1H-1,2,4-triazol-3-yl]amino]-N-methyl-benzenesulfonamide]	16300 nM	272 nM	–	1120 nM	–	–
CNS(=O)(=O)c1ccc(Nc2nc(N)n(C(=O)c3sccc3C)n2)cc1 [Cpd 82, 4-[[5-amino-1-[(3-methyl-2-thienyl)carbonyl]-1H-1,2,4-triazol-3-yl]amino]-N-methyl-benzenesulfonamide]	921 nM	15 nM	–	–	89 nM	–
CCc1ccc(C(=O)n2nc(Nc3ccc(S(=O)(=O)NC)cc3)nc2N)s1 [Cpd 84, 4-[[5-amino-1-[(5-ethyl-2-thienyl)carbonyl]-1H-1,2,4-triazol-3-yl]amino]-N-methyl-benzenesulfonamide]	461 nM	23 nM	–	–	300 nM	–
CCc1ccc(C(=O)n2nc(Nc3ccc(S(=O)(=O)NCCN(C)C)cc3)nc2N)s1 [Cpd 103, 4-[[5-amino-1-[(5-ethyl-2-thienyl)carbonyl]-1H-1,2,4-triazol-3-yl]amino]-N-[2-(dimethylamino)ethyl]-benzenesulfonamide]	–	–	228 nM	228 nM	170 nM	1 nM
Cc1ccsc1C(=O)n1nc(Nc2ccc(S(=O)(=O)NCCN(C)C)cc2)nc1N [Cpd 104, 4-[[5-amino-1-[(3-methyl-2-thienyl)carbonyl]-1H-1,2,4-triazol-3-yl]amino]-N-[2-(dimethylamino)ethyl]-benzenesulfonamide]	–	–	–	–	200 nM	1 nM
Cc1cc(C)c(C(=O)n2nc(Nc3ccc(NS(C)(=O)=O)cc3)nc2N)s1 [Cpd 108, N-[4-[[5-amino-1-[(3,5-dimethyl-2-thienyl)carbonyl]-1H-1,2,4-triazol-3-5 yl]amino]phenyl]-methanesulfonamide]	–	–	42 nM	41.7 nM	307 nM	12 nM
Cc1ccsc1C(=O)n1nc(Nc2ccc(N3CCNC3=O)cc2)nc1N [Cpd 113, 1-[4-[[5-amino-1-[(3-methyl-2-thienyl)carbonyl]-1H-1,2,4-triazol-3-yl]amino]phenyl]-2-imidazolidinone]	281 nM	–	68 nM	68 nM	–	–
Cc1ccsc1C(=O)n1nc(Nc2ccc(N3CCCS3(=O)=O)cc2)nc1N [Cpd 116, N^3-[4-(1,1-dioxido-2-isothiazolidinyl)phenyl]-1-[(3-methyl-2-thienyl)carbonyl]-1H-1,2,4-triazole-3,5-diamine]	–	–	131 nM	131 nM	–	1 nM
Nc1nc(Nc2ccc(N3CCCS3(=O)=O)cc2)nn1C(=O)c1c(F)cccc1F [Cpd 117]	–	–	–	–	–	7 nM
Nc1nc(Nc2ccc(S(=O)(=O)Nc3ccccn3)cc2)nn1C(=O)c1c(F)cccc1F [Cpd 118, 4-[[5-amino-1-(2,6-difluorobenzoyl)-1H-1,2,4-triazol-3-yl]amino]-N-(2-pyridinyl)-benzenesulfonamide]	–	–	> 10000 nM	> 10000 nM	–	21 nM
Cc1cc(C)c(C(=O)n2nc(Nc3ccc(S(=O)(=O)Nc4ccccn4)cc3)nc2N)s1 [Cpd 120]	–	–	–	–	–	9 nM
Cc1ccc(F)c(C(=O)n2nc(N)nc2Nc2ccc(S(N)(=O)=O)cc2)c1F [Cpd 123, 4-[[3-amino-1-(2,6-difluoro-3-methylbenzoyl)-1H-1,2,4-triazol-5-yl]amino]-benzenesulfonamide]	–	–	> 100000 nM	~100000 nM	–	31 nM
